Test results published in EP4813383A1, “USE OF TAFAMIDIS AND PHARMACEUTICALLY ACCEPTABLE SALT THEREOF IN PREVENTION, ALLEVIATION, OR TREATMENT OF DISEASES ASSOCIATED WITH HIF-2a” (Huaya Jiyuan (Shenzhen) Pharmaceutical Co., Ltd., priority 2024, dated 2025).

Legend:
[1] = system: Cisplatin-induced renal injury and anemia rat model; assay: Cisplatin-induced renal injury and anemia rat model; type: in vivo, Male Sprague-Dawley (SD) rats
Procedure: Male Sprague-Dawley (SD) rats are allowed a one-week acclimation period, after which cisplatin (6 mg/kg) is administered through tail vein injection. A second injection is given one week later. Two weeks after the first administration, successful establishment of a renal disease model is confirmed by measuring serum creatinine and urea levels. The established rat model is randomly divided into four groups: a control group (n = 7), a cisplatin group (n = 6), a roxadustat group (n = 6), and a tafamidis group (n = 6). The roxadustat group and tafamidis group are orally administered the corresponding compound (roxadustat or tafamidis) at 10 mg/kg daily for four consecutive weeks. A corresponding solvent is administered to the control group and cisplatin group rat models based on the same dosing regimen. Urine samples are collected on the day following the final treatment, so as to measure UTP and UCREA. Hematological analysis is performed using a Mindray BC-5150 automated hematology analyzer, and urinalysis is performed using a Mindray BS-2000M automated biochemical analyzer, both using commercially available kits according to the manufacturers' instructions. After sample collection, the rats are euthanized. Statistical significance is determined by one-way analysis of variance (ANOVA), and then a Dunnett's test is performed for comparison with the cisplatin group (*P < 0.05, **P < 0.01, ***P < 0.001).
Left kidney samples collected from cisplatin-induced rats are fixed in 4% paraformaldehyde, dehydrated, embedded in paraffin, and sectioned. The tissue sections are 4 µm thick, and are subsequently subjected to histochemical staining such as hematoxylin-eosin (H&E), periodic acid-Schiff (PAS), and Masson's trichrome staining. After staining, the sections are scanned using advanced three-dimensional histological imaging technology, and high-resolution images are captured using a Pannoramic DESK/MIDI/250/1000 system. To evaluate renal tubular injury, 10 fields are randomly selected from each sample, and examined at a 40× magnification. The degree of renal tubular injury is assessed using a semi-quantitative scoring system (Paller score): 0 (no injury), 1 (<25% injury), 2 (25% to 50% injury), 3 (50% to 75% injury), and 4 (>75% injury). In addition, the entire tissue section is assessed at a 0.7× magnification to determine the extent of collagen fiber deposition shown by Masson's trichrome staining. Semi-quantitative analysis of the collagen fiber area is performed using Image-Pro Plus 6.0 software (Media Cybernetics, Rockville, MD, USA). For glomerular evaluation, 20 glomeruli are randomly selected from each rat and analyzed at a 63× magnification, using mesangial matrix expansion shown by PAS staining as an indicator. Semi-quantitative analysis of the mesangial matrix is likewise performed using Image-Pro Plus 6.0 software. Statistical significance is determined by one-way analysis of variance (ANOVA), and then a Dunnett's test is performed for comparison with the cisplatin group (*P < 0.05, **P < 0.01, ***P < 0.001).
Immunofluorescence staining is performed on 4 µm-thick kidney tissue sections. The sections are deparaffinized and rehydrated through ethanol, and then is subjected to microwave treatment in a 0.01 mol/L sodium citrate buffer (pH 6.0) for antigen retrieval. Subsequently, the sections are incubated overnight at 4 °C with a primary antibody against α-SMA (19245S, Cell Signaling Technology). After incubation, the sections is incubated at room temperature for 30 minutes with an HRP-conjugated secondary antibody (PK10009, Proteintech Group), and localization is performed using a DAB kit. After staining, the sections are scanned using advanced three-dimensional histological imaging technology, and high-resolution images are captured using a Pannoramic DESK/MIDI/250/1000 system. The entire tissue section is assessed at a 0.7× magnification to determine an α-SMA-positive region. […]

[2] = system: vascular endothelial growth factor (VEGF) gene expression; assay: qRT-PCR assay of VEGF gene expression in 786-O renal carcinoma cells; type: cell-based; details: 24 hours, relative to the vehicle, GAPDH internal control
Procedure: Experimental method: 786-O renal carcinoma cells are seeded into a 12-well plate. After 24 hours, tafamidis is added at different concentrations (1 µM, 10 µM, and 20 µM, separately), and the cells are co-incubated with the compound for 24 hours. No treatment is applied to the vehicle group. RNA is extracted using a TRIZOL reagent. cDNA transcription is performed using an All-in-one™ First-Strand cDNA Synthesis Kit (for specific operating procedures, see the manufacturer's instructions). A SYBR reagent is used for fluorescence signal detection, and GAPDH is used as an internal control. The qRT-PCR primers are as follows: • GAPDH_fwd, […]; • GAPDH_rev, TGGTGAAGACGCCAGTGGA; • VEGF_fwd, […]; • VEGF_rev, […]; • EPO_fwd, […]; • EPO_rev, […].

[3] = system: aristolochic acid-induced zebrafish model; assay: Aristolochic acid-induced zebrafish model: glomerular filtration (whole-body fluorescence of tracer); type: in vivo, Wild-type AB strain zebrafish; details: 1 µM in aqueous solution; normal group 100%, model group 239%
Procedure: Wild-type AB strain zebrafish at 2 days post-fertilization are randomly selected and placed in a 6-well plate, with 30 zebrafish treated in each well (treatment group). Other than the normal control group, all treatment groups are exposed to aristolochic acid in aqueous solution to establish a zebrafish renal anemia model. After treatment at 28 °C for 18 hours, a normal control group and a model control group are set up simultaneously. Tafamidis samples are administered in aqueous solution to the treatment groups separately (at concentrations of 0.1 µM and 1 µM separately). Water is administered to the normal control group and the model control group correspondingly, with a volume of 3 mL per well. After continued treatment at 28 °C for 4 hours, all treatment groups are intravenously injected with a fluorescent tracer (dextran tetramethylrhodamine). After a further 1 day of treatment at 28 °C, 10 zebrafish are randomly selected from each treatment group and photographed under a fluorescence microscope. Data are analyzed and collected using NIS-Elements D 3.20 advanced image processing software, and whole-body fluorescence intensity in the zebrafish is analyzed. Statistical analysis of this indicator is used to evaluate the efficacy of the samples in repairing renal injury. Statistical results are expressed as mean±SE. […]

[4] = system: aristolochic acid-induced zebrafish model; assay: Aristolochic acid-induced zebrafish chronic kidney disease model: renal edema incidence; type: in vivo, Wild-type AB strain zebrafish; details: 1 µM in aqueous solution, 30 hours; model group 100%
Procedure: Wild-type AB strain zebrafish at 2 days post-fertilization (2 dpf) are randomly selected and placed in a 6-well plate, with 30 zebrafish treated in each well (treatment group). Other than the normal control group, all treatment groups are exposed to aristolochic acid in aqueous solution to establish a zebrafish renal anemia model. After treatment at 28 °C for 18 hours, a normal control group and a model control group are set up simultaneously. Tafamidis samples are administered in aqueous solution to the treatment groups separately (at concentrations of 20 µM, 10 µM, and 1 µM separately, each concentration being tested in triplicate). Water is administered to the normal control group and the model control group correspondingly, with a volume of 3 mL per well.

[5] = 10 mg/kg daily oral for four weeks, urine, versus cisplatin group
[6] = 10 mg/kg daily oral for four weeks, kidney tissue
[7] = 10 mg/kg daily oral for four weeks, urine, versus cisplatin group, p < 0.05

Structure (SMILES)	UTP levels [1, 5]	upregulates vascular endothelial growth factor (VEGF) gene expression ([2]; 10 µM) [fold]	upregulates VEGF gene expression ([2]; 20 µM) [fold]	glomerular filtration rate [3] [%]	erythropoietin (EPO) protein levels, Western blot [1, 6]	α-SMA protein expression, Western blot [1, 6]	cisplatin-induced renal injury, semi-quantitative scoring (H&E, Masson's trichrome, PAS) ([1]; 10 mg/kg daily oral for four weeks, left kidney sections)	UCREA levels [1, 7]	UTP/UCREA ratio [1, 7]	Gross observation of kidney tissues (color) ([1]; 10 mg/kg daily oral for four weeks, normal control healthy red, cisplatin group white discoloration and edema)	Red blood cells (RBCs) ([1]; 10 mg/kg daily oral, week 4, cisplatin group 6.3 ± 0.3 ×10^12, p < 0.001)	Hematocrit (HCT) ([1]; 10 mg/kg daily oral, week 4, cisplatin group 46.2 ± 1.8%, p < 0.001) [%]	Hemoglobin (HGB) ([1]; 10 mg/kg daily oral, week 4, cisplatin group 127.7 ± 4.7, p < 0.05) [g/L]	renal edema incidence [4] [%]
Cc1nc(C(=O)NCC(=O)O)c(O)c2ccc(Oc3ccccc3)cc12 [roxadustat]	increases	–	–	–	–	–	–	–	–	–	–	–	–	–
O=C(O)c1ccc2nc(-c3cc(Cl)cc(Cl)c3)oc2c1 [tafamidis, 2-(3,5-dichlorophenyl)-1,3-benzoxazole-6-carboxylic acid]	little effect	0.5	1.4	158	increasing	significantly reduces	significantly alleviates	increases	reducing	normal red color	8.1 ± 0.4 × 10^12 cells/L	58.4 ± 2.9	161.8 ± 9.3	80
